Measurements reported in article PMC5538626, “Structural and functional analysis of the GABARAP interaction motif (GIM)” (EMBO Reports, 2017).
Ends that are not written are not given here.

Biological target: T1, GABARAP R28K (Homo sapiens, UniProt O95166, R28K)
T1 construct: modified Ub-leader (ubiquitin fusion leader) (N); made in house; host or cells: E. coli NEB T7 Express
Assay: ITC titration of PLEKHM1-LIR peptide into GABARAP R28K mutant
Format: binding
Protocol: The chimeric constructs were expressed as a His‐tag fusion protein in E. coli BL21(DE3) cells. The cells were induced with 0.3 mM IPTG at OD600 0.6 for 16 h at 26°C. The cell pellets were lysed using mechanical sonication in lysis buffer (20 mM Tris–HCl pH 9.0, 100 mM NaCl, 10 mM imidazole, supplemented with 0.1% Triton X‐100). The proteins were purified using Ni‐NTA beads (GE Healthcare) and the His‐tag was cleaved using thrombin (Invitrogen) at room temperature for 16 h. The last step was gel filtration chromatography using a Superdex S200/300 GL column (GE Healthcare). The proteins were concentrated using spin concentrators (Vivaspin). For ITC and NMR studies, the non‐labelled and stable isotopes labelled LC3 and GABARAP proteins were obtained based on the protocols described elsewhere 30, 39. Here, E. coli NEB T7 Express culture transformed with corresponding plasmids were grown till OD600 nm = 1.0 and protein expression was induced with 0.2 mM IPTG. The cultures were incubated at 25°C for 8–12 h before cell harvesting. Isolation and purification procedures were similar to those reported in Ref. 22, 40. Before experiments, all proteins and peptides were equilibrated with a buffer containing 50 mM Na2HPO4, 100 mM NaCl at pH 7.0, and supplied with 5 mM protease inhibitor cocktail.
The protocol for preparation of non‐labelled and ^13C,^15N‐labelled PLEKHM1‐LIR peptide was slightly modified to achieve highest yield of the peptide. The 50 ml M9 culture was inoculated with NEB T7 cell transformed with pET39_Ub63‐PLEKHM1‐LIR plasmid and grown overnight at 37°. The collected cells were resuspended in 2 l of either LB or M9 media contained 1.5 g ^15N‐labelled NH4Cl and 3.0 g of ^13C‐labelled glucose. The cultures were grown at 37° till A(600 nm) = 0.9 and supplied with 1 mM of IPTG to induce Ub63‐PLEKHM1‐LIR overexpression (3 h at 37°). After that cells were harvested by centrifugation, re‐suspended in buffer contained 50 mM Tris–HCl pH = 7.9, 200 mM NaCl, 5% glycerol, 0.1 mg/ml DNase A and 4 mM protease inhibitor cocktail. After cell lysis by French press, debris was removed by centrifugation and clear supernatant was applied onto the column contained Ni‐NTA Sepharose equilibrated with the loading buffer (50 mM Tris–HCl pH = 7.9, 250 mM NaCl, 1% glycerol and 20 mM imidazole). Elution was performed with 400 mM imidazole in the same buffer. An aliquot of pure Ub63‐PLEKHM1‐LIR fractions was further purified by gel filtration on Superdex75 26 × 60 column for control ITC and analytical size exclusion chromatography experiments, remaining fusion protein was processed with the TEV‐protease and PLEKHM1‐LIR peptide was purified to 95% purity by reverse Ni‐NTA chromatography and followed gel filtration on Superdex75 26 × 60 column. Peak maximum of peptide was detected at […] (void volume 115 ml). Pure peptide was concentrated in Amicon concentrators with cut‐off of 3 kDa (> 95% retention).
All titration experiments were performed at 25°C using a VP‐ITC microcalorimeter (Malvern Instruments Ltd, UK). The ITC data were analysed with the ITC‐Origin 7.0 software with a “one‐site” binding model. The peptides at concentrations of 0.4 mM were titrated into 0.020 mM LC3 and GABARAP proteins in 26 steps. The protein and peptide concentrations were calculated from the UV absorption at 280 nm by NanoDrop spectrophotometer (Thermo Fisher Scientific, DE, USA).

T1 sequence (O95166 whole entry R28K, the tested form may be a part): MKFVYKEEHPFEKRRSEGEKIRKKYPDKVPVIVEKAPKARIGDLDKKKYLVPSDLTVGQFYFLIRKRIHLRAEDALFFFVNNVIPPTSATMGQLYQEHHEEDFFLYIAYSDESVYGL

For GAMGPQQEDEWVNVQYPD [PLEKHM1‐LIR WT], the “-T*DS” value (25°C, pH 7.0, GABARAP R28K) was “+2.00 kcal mol-1”, the “DG (ΔG)” value (25°C, pH 7.0, GABARAP R28K) was -8.55 kcal/mol and the “DH (ΔH)” value (25°C, pH 7.0, GABARAP R28K) was -10.55 ± 0.1 kcal/mol. For the same sequence, the “DS (ΔS)” value (25°C, pH 7.0, GABARAP R28K) was -6.71 cal mol-1 K-1, the KA (25°C, pH 7.0, GABARAP R28K) was 1.9±0.1 *10^6 M-1 and the N (25°C, pH 7.0, GABARAP R28K) was 1.05±0.01. For the same sequence, the “smaller favorable enthalpy vs wild type GABARAP” value (within experimental error) was 0.05 kcal/mol.
